# Biological target: T1, recombinant LRRK2 kinase (Homo sapiens, UniProt Q5S007)
# T1 construct: purchased Signal Chem, Richmond, BC, Canada
# Experiment: LRRK2 kinase inhibition (Kinase-Glo luminescence)
# Assay type: biochemical
# Details: IC50 grade; 25 μmol/L ATP, LRRKtide, 30° C. 2 hours; read-out: Enzyme activity LRRK2
# Procedure: Upon completion of the reaction, an equal amount of Kinase-Glo (Promega, Madison, Wis.) solution was added thereto, followed by reaction for 40 minutes. A detection solution was added thereto, followed by further reaction at room temperature for 30 minutes. Then, IC50 of kinase was calculated by measuring the amount of luciferase using a microplate ELISA reader (Bio-Tek).
# T1 sequence (Q5S007 whole entry): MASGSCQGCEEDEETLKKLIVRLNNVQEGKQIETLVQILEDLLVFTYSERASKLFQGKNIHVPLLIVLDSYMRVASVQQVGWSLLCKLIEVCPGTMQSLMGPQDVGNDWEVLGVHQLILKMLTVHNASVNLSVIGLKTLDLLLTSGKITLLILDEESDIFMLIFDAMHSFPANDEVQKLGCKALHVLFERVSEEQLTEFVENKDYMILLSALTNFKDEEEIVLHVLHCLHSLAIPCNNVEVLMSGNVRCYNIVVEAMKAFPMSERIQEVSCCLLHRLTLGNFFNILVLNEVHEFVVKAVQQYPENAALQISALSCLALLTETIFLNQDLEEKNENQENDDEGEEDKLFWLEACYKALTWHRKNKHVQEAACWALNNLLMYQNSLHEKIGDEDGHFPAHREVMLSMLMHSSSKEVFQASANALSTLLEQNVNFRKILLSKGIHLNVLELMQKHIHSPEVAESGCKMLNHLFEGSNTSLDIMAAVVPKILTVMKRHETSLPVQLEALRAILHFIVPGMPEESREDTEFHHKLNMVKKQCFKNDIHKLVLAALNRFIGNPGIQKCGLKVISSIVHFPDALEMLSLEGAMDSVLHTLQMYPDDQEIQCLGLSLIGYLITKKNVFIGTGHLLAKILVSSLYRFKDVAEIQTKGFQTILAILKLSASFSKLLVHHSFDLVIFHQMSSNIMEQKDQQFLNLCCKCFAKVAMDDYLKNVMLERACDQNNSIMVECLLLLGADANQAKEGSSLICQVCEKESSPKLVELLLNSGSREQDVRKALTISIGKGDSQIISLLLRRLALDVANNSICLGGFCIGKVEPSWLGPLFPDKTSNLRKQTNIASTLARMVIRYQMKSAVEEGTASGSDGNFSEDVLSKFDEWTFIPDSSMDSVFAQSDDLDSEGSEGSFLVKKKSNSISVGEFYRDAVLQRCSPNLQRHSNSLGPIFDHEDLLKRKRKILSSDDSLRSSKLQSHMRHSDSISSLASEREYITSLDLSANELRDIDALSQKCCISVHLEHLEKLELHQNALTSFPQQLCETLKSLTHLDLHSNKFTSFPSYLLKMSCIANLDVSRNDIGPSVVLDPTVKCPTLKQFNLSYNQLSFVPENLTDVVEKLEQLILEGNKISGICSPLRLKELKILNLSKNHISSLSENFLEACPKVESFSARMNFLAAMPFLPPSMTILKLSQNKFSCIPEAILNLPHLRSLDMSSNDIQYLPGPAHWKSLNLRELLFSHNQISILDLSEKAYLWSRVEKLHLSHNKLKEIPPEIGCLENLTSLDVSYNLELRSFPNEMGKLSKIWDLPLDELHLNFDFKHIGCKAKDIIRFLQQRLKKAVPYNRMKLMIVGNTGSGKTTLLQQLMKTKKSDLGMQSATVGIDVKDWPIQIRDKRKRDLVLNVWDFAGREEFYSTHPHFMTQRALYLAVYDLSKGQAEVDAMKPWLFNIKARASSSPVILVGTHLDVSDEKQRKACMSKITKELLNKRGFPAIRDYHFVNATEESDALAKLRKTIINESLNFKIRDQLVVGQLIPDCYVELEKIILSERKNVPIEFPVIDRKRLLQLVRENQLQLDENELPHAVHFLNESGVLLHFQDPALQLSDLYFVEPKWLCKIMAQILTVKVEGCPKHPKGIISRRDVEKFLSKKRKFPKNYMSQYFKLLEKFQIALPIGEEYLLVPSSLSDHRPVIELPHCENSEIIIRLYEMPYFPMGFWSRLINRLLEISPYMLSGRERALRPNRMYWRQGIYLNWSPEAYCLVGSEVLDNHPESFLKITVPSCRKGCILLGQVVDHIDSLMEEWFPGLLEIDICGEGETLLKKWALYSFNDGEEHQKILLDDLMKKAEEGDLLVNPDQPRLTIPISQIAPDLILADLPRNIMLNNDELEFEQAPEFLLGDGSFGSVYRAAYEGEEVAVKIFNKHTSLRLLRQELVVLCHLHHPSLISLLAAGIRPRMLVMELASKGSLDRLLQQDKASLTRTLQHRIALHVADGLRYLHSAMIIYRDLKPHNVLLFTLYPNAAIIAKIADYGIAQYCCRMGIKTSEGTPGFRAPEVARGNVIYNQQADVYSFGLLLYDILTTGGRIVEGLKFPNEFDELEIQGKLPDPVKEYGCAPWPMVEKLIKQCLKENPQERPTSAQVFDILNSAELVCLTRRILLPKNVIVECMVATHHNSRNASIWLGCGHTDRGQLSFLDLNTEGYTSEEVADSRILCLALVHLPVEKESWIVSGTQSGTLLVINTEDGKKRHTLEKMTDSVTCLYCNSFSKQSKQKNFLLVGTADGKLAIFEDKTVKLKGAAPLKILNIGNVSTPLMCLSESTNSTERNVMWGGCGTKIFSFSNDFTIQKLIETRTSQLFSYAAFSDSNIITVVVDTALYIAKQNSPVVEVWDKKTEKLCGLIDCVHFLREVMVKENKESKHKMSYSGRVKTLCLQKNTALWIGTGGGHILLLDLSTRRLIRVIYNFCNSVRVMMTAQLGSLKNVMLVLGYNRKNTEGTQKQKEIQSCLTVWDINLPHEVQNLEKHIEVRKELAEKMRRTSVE
row,IC50,SMILES
1,< 10 nM,"CCNc1nc(Nc2cc3c(cc2OC)C(=O)N(C)C3)nc2[nH]cc(C(F)(F)F)c12 [Example 133, 5-((4-(ethylamino)-5-(trifluoromethyl)-7H-pyrrolo[2,3-d]pyrimidine-2-yl)amino)-6-methoxy-2-methylisoindolin-1-one]"
2,> 100 nM,"CCNc1nc(Nc2cc3c(cc2OC)CN(C)C3=O)nc2[nH]cc(C(F)(F)F)c12 [Example 134, 6-((4-(ethylamino)-5-(trifluoromethyl)-7H-pyrrolo[2,3-d]pyrimidine-2-yl)amino)-5-methoxy-2-methylisoindolin-1-one]"
3,> 100 nM,"CCNc1nc(Nc2cc3c(cc2Cl)C(=O)N(C)C3)nc2[nH]cc(C(F)(F)F)c12 [Example 135, 6-chloro-5-((4-(ethylamino)-5-(trifluoromethyl)-7H-pyrrolo[2,3-d]pyrimidine-2-yl)amino)-2-methyl isoindolin-1-one]"
4,10 to 100 nM,"CCNc1nc(Nc2ccc3c(c2)CN(C)C3=O)nc2[nH]cc(C(F)(F)F)c12 [Example 136, 5-((4-(ethylamino)-5-(trifluoromethyl)-7H-pyrrolo[2,3-d]pyrimidine-2-yl)amino)-2-methylisoindolin-1-one]"
5,> 100 nM,"CCNc1nc(Nc2cc3c(cc2OC)N(C)C(=O)C(C)(C)O3)nc2[nH]cc(C(F)(F)F)c12 [Example 137, 7-((4-(ethylamino)-5-(trifluoromethyl)-7H-pyrrolo[2,3-d]pyrimidine-2-yl)amino)-6-methoxy-2,2,4-trimethyl-2H-benzo[1,4]oxazine-3(4H)-one]"

# From patent publication US11208412B2 (DAEGU-GYEONGBUK MEDICAL INNOVATION FOUNDATION, priority 2017, dated 2021)
